# According to PubChem BioAssay AID493135 (Sanford-Burnham Center for Chemical Genomics, 2011):
# Calls of active or inactive are those of the source. No rule for the calls is given here.
# Target: intestinal alkaline phosphatase Alpi (Mus musculus)
# Experiment: inhibition of murine Alpi phosphatase – biochemical, luminescence, SAR follow-up (AID 493135)
# Conditions: purified mouse IAP, luminescent substrate readout
row,SMILES,IC50
1,CCn1cc(CN2CCC(C(=O)Nc3cccc(-c4cccc(OC)c4)c3)CC2)c(C)n1,> 100 µM (inactive)
2,Oc1ccc(-c2csc(Nc3cccc4ccccc34)n2)cc1O,1.11 µM
3,CC(C)N1CCC(=NNC(=O)c2cc(O)c(O)c(O)c2)CC1,24.9 µM
4,C=CCn1cc(CN2CCC(C(=O)Nc3cccc(-c4cccc(Cl)c4)c3)CC2)c(C)n1,> 100 µM (inactive)
5,COc1cccc(-c2cccc(NC(=O)C3CCN(Cc4ccc(CO)o4)CC3)c2)c1,> 100 µM (inactive)
6,CC(C)n1cc(CN2CCC(C(=O)Nc3cccc(-c4cccc(Cl)c4)c3)CC2)cn1,> 100 µM (inactive)
7,O=[N+]([O-])c1ccc(NC(=S)NCCC(c2ccccc2)c2ccccc2)cc1,> 100 µM (inactive)
8,Cc1c(Cl)cccc1NC(=S)NCCC(c1ccccc1)c1ccccc1,> 100 µM (inactive)
9,COc1ccc(NC(=S)NCCC(c2ccccc2)c2ccccc2)cc1,> 100 µM (inactive)
10,S=C(NCCC(c1ccccc1)c1ccccc1)Nc1cccc(Cl)c1,> 100 µM (inactive)
11,CCn1cc(CN2CCC(C(=O)Nc3cccc(-c4cccc(OC)c4)c3)CC2)cn1,> 100 µM (inactive)
12,Cc1c(CN2CCC(C(=O)Nc3cccc(-c4cccc(Cl)c4)c3)CC2)cnn1C,> 100 µM (inactive)
13,CC(C)n1cc(CN2CCC(C(=O)Nc3cccc(-c4cccc(F)c4)c3)CC2)cn1,> 100 µM (inactive)
14,COCc1ccc(CN2CCC(C(=O)Nc3cccc(-c4cccc(Cl)c4)c3)CC2)o1,> 100 µM (inactive)
15,CN1CCC(=NNC(=O)c2cc(O)c(O)c(O)c2)CC1,38.7 µM
16,COc1cccc(-c2cccc(NC(=O)C3CCN(Cc4ccc(C)o4)CC3)c2)c1,> 100 µM (inactive)
17,S=C(NCCC(c1ccccc1)c1ccccc1)Nc1ccc(Nc2ccccc2)cc1,> 100 µM (inactive)
18,CN(C)S(=O)(=O)c1cccc(NC(=S)NCCC(c2ccccc2)c2ccccc2)c1,> 100 µM (inactive)
19,Cn1cc(CN2CCC(C(=O)Nc3cccc(-c4cccc(Cl)c4)c3)CC2)cn1,> 100 µM (inactive)
20,Cc1cccc(NC(=S)NCCC(c2ccccc2)c2ccccc2)c1C,> 100 µM (inactive)
21,CCn1c(SCC(=O)c2ccc(O)c(O)c2)nnc1-c1ccccc1OC,1.9 µM
22,COc1cc(NC(=S)NCCC(c2ccccc2)c2ccccc2)cc(OC)c1,> 100 µM (inactive)
23,Cc1ccc(CN2CCC(C(=O)Nc3cccc(-c4cccc(F)c4)c3)CC2)o1,> 100 µM (inactive)

row,SMILES,IC50
1,CC1(c2ccccc2)CC(C)(C)N(C(=S)Nc2ccccc2)c2ccccc21 (stereo not drawn),> 100 µM (inactive)
2,COc1cc([N+](=O)[O-])ccc1NC(=S)NCCC(c1ccccc1)c1ccccc1,> 100 µM (inactive)
3,Fc1ccccc1NC(=S)NCCC(c1ccccc1)c1ccccc1,> 100 µM (inactive)
4,COc1cccc(NC(=S)NCCC(c2ccccc2)c2ccccc2)c1,> 100 µM (inactive)
5,Cc1cc(=O)oc2cc(NC(=S)NCCC(c3ccccc3)c3ccccc3)ccc12,> 100 µM (inactive)
6,FC(F)(F)c1cccc(NC(=S)NCCC(c2ccccc2)c2ccccc2)c1,> 100 µM (inactive)
7,CCn1cc(CN2CCC(C(=O)Nc3cccc(-c4cccc(Cl)c4)c3)CC2)cn1,> 100 µM (inactive)
8,Cc1ccc(C)c(NC(=S)NCCC(c2ccccc2)c2ccccc2)c1,> 100 µM (inactive)
9,Cc1cc(Cl)ccc1NC(=S)NCCC(c1ccccc1)c1ccccc1,> 100 µM (inactive)
10,O=C(Nc1cccc(-c2cccc(Cl)c2)c1)C1CCN(C2CCC2)CC1,> 100 µM (inactive)
11,CCN1CCN(S(=O)(=O)c2ccc3[nH]c(=O)oc3c2)CC1,> 100 µM (inactive)
12,COc1ccc(Cl)cc1NC(=S)NCCC(c1ccccc1)c1ccccc1,> 100 µM (inactive)
13,S=C(NCCC(c1ccccc1)c1ccccc1)Nc1ccc(Cl)cc1Cl,> 100 µM (inactive)
14,CCn1cc(CN2CCC(C(=O)Nc3cccc(-c4cccc(F)c4)c3)CC2)cn1,> 100 µM (inactive)
15,Cc1cc(NC(=O)CCNS(=O)(=O)c2ccc3[nH]c(=O)oc3c2)ccc1Br,81.8 µM
16,COc1ccc(Cl)cc1Nc1nc(-c2ccc(O)c(O)c2)cs1,1.42 µM
17,C=CCn1cc(CN2CCC(C(=O)Nc3cccc(-c4cccc(F)c4)c3)CC2)c(C)n1,> 100 µM (inactive)
18,CCn1nc(C)c(CN2CCC(C(=O)Nc3cccc(-c4cccc(Cl)c4)c3)CC2)c1C,> 100 µM (inactive)
19,CCn1nc(C)c(CN2CCC(C(=O)Nc3cccc(-c4cccc(F)c4)c3)CC2)c1C,> 100 µM (inactive)
20,O=C(Nc1cccc(-c2cccc(Cl)c2)c1)C1CCN(Cc2ccc(CO)o2)CC1,> 100 µM (inactive)
21,CCOC(=O)c1ccc(NC(=S)NCCC(c2ccccc2)c2ccccc2)cc1,> 100 µM (inactive)
22,O=C(CN1C(=O)/C(=C/c2ccco2)SC1=S)Nc1ccc(C(=O)O)cc1,7.97 µM
23,Cc1c(Cl)cccc1Nc1nc(-c2ccc(O)c(O)c2)cs1,7.51 µM

row,SMILES,IC50
1,Cc1cc(C)cc(NC(=S)NCCC(c2ccccc2)c2ccccc2)c1,> 100 µM (inactive)
2,O=S(=O)(Nc1ncccn1)c1ccc(NC(=S)NCCC(c2ccccc2)c2ccccc2)cc1,> 100 µM (inactive)
3,O=C(Nc1cccc(-c2cccc(F)c2)c1)C1CCN(Cc2ccc(CO)o2)CC1,> 100 µM (inactive)
4,CCCn1ncc(CN2CCC(C(=O)Nc3cccc(-c4cccc(F)c4)c3)CC2)c1C,> 100 µM (inactive)
5,S=C(NCCC(c1ccccc1)c1ccccc1)Nc1ccccc1,> 100 µM (inactive)
6,Fc1ccc(NC(=S)NCCC(c2ccccc2)c2ccccc2)cc1Cl,> 100 µM (inactive)
7,Cn1cc(CN2CCC(C(=O)Nc3cccc(-c4cccc(F)c4)c3)CC2)cn1,> 100 µM (inactive)
8,Cc1ccc(NC(=S)NCCC(c2ccccc2)c2ccccc2)cc1,> 100 µM (inactive)
9,O=C(CN1C(=O)/C(=C\c2ccco2)SC1=S)Nc1ccccc1C(=O)O,58.7 µM
10,CC(C)c1ccccc1NC(=S)NCCC(c1ccccc1)c1ccccc1,> 100 µM (inactive)
11,S=C(NCCC(c1ccccc1)c1ccccc1)Nc1ccc(Cl)c(Cl)c1,> 100 µM (inactive)
12,COC(=O)c1cc(NC(=S)NCCC(c2ccccc2)c2ccccc2)cc(C(=O)OC)c1,> 100 µM (inactive)
13,Cc1ccc(NC(=O)CCNS(=O)(=O)c2ccc3[nH]c(=O)oc3c2)cc1C,87.1 µM
14,Cc1ccc(NC(=S)NCCC(c2ccccc2)c2ccccc2)cc1C,> 100 µM (inactive)
15,NS(=O)(=O)c1ccc(NC(=S)NCCC(c2ccccc2)c2ccccc2)cc1,> 100 µM (inactive)
16,CCn1ncc(CN2CCC(C(=O)Nc3cccc(-c4cccc(F)c4)c3)CC2)c1C,> 100 µM (inactive)
17,Cc1nn(C(C)C)c(C)c1CN1CCC(C(=O)Nc2cccc(-c3cccc(F)c3)c2)CC1,> 100 µM (inactive)
18,O=C(CN1C(=O)/C(=C/c2ccco2)SC1=S)Nc1cccc(C(=O)O)c1,8.17 µM
19,CCc1ccccc1Nc1nc(-c2ccc(O)c(O)c2)cs1,1.55 µM
20,COc1ccc(C(=O)CSc2n[nH]c(-c3ccccc3)n2)cc1OC,> 100 µM (inactive)
21,S=C(NCCC(c1ccccc1)c1ccccc1)Nc1ccc(Cl)cc1,> 100 µM (inactive)
22,Cc1nn(C)c(Cl)c1CN1CCC(C(=O)Nc2cccc(-c3cccc(F)c3)c2)CC1,> 100 µM (inactive)
